Experimental data as given in patent publication US20220273757A1, “METHODS FOR ADMINISTERING ANGIOTENSIN II BY […] LEVELS” (La Jolla Pharma, LLC, priority 2019, published 2022).
Several values for one entry are separate records, joined by “and”; a condition that tells them apart may be missing. Identical values can stand only once.

What was measured:
Type in all cases: in vivo, human
serum renin = experiment: Serum renin concentration at baseline and hour 3 (DRG Renin ELISA), ATHOS-3 patients
Experimental: (§1) The Angiotensin II for the Treatment of High-Output Shock 3 (ATHOS-3) study has been previously described—NCT02338843. In brief, adults with vasodilatory shock despite volume resuscitation with ≥25 mL/kg and high-dose vasopressors (defined as a norepinephrine equivalent [NED] of greater than 0.2 mcg/kg/min) were randomly assigned 1:1 to receive synthetic human angiotensin II (La Jolla Pharmaceutical Company, San Diego, Calif.) or saline placebo plus standard vasopressors. Randomization was stratified according to MAP at screening and Acute Physiology and Chronic Health Evaluation II (APACHE II) score.
(§2) Study drug infusion started at 20 ng/kg/min and was adjusted during the first 3 hours to increase the MAP to ≥75 mm Hg while keeping other vasopressors constant. Thereafter, the study drug and other vasopressors were adjusted at the discretion of the treating ICU team to maintain a MAP between 65 and 75 mm Hg. At 48 hours, the infusion was discontinued according to a protocol-specified tapering process. However, continuation was allowed for up to 7 days at the discretion of the ICU team.
(§3) Serum concentrations of renin, angiotensin I, and angiotensin II were measured after randomization but prior to administration of the study drug and at 3 hours after initiation of study drug.
Serum renin was measured with the DRG Renin ELISA Kit (DRG Instruments GmbH, Marburg, Germany). The DRG ELISA Kit is a solid-phase enzyme-linked immunosorbent assay based on the sandwich principle. The microtiter wells are coated with a monoclonal (mouse) antibody directed toward a unique antigenic site of the human active renin molecule. An aliquot of patient sample containing endogenous renin is rapidly thawed in a water bath and incubated in the coated well together with assay buffer. After incubation, unbound components are washed off. Finally, enzyme conjugate, a monoclonal anti-renin antibody conjugated with horseradish peroxidase, is added. After incubation, unbound enzyme conjugate is washed off. The amount of bound peroxidase is proportional to the concentration of renin in the sample. Having added the substrate solution, the intensity of color developed is proportional to the concentration of active renin in the patient sample. Personnel who conducted the assays were blinded to the study database and treatment allocation.

angiotensin I = experiment: Serum angiotensin I level at baseline and hour 3, ATHOS-3 patients; conditions: hour 3; IQR 13.4%-65.1% reduction; placebo 8.1%
Experimental: as §1, §2, §3

[1] = test system: patients with catecholamine-resistant vasodilatory shock; experiment: 28-day mortality / survival in ATHOS-3 by baseline serum renin; conditions: for Hazard Ratio (95% CI), mortality, treatment arm: patients with elevated baseline renin only; for unstratified hazard ratio, 28-day mortality, vs placebo: renin above study population median (high renin), N = 128, 95% CI 0.35-0.88
Experimental: as §1, §2
(§4) Descriptive statistics with 95% confidence intervals (CIs) were used to summarize data according to treatment group. Differences between treatment groups were identified using the Wilcoxon rank-sum test or analysis of variance for continuous or ordinal variables and the chi-square or Fisher's exact test for discrete variables. Time-to-event data was summarized, including survival, using Kaplan-Meier estimates and compared them by log-rank test. Hazard ratios (HRs) are estimated from a proportional hazards model. A two-sided alpha level of 0.05 was used to test for differences in treatment outcomes without adjustments for multiplicity. Correlation coefficients were calculated for renin versus angiotensin I and the angiotensin I/II ratio. Correlation coefficients were also calculated for renin versus angiotensin I for hour 0 (baseline) and hour 3. For multivariate analyses, covariates that were utilized for study stratification (Model A), covariates that were different between groups defined by P<0.10 (Model B), and statistically significant covariates from Models A and B were included in a multivariate logistic regression (Model C). The dichotomized baseline covariates that were utilized for study stratification were MAP <65 mm Hg and APACHE II score >30.

[2] = test system: patients with catecholamine-resistant vasodilatory shock; experiment: Ventilator liberation, RRT liberation and ICU discharge in ATHOS-3 by baseline renin
Experimental: as §1, §2, §4

[3] = test system: patients with catecholamine-resistant vasodilatory shock; experiment: MAP response at hour 3 by baseline renin, ATHOS-3
Experimental: as §1, §2

patients with severe AKI = experiment: Renal recovery in patients with severe AKI by serum renin levels, ATHOS-3; conditions: first 7 days
Experimental: as §1, §2
as §4, with “For multivariate analyses, covariates that were utilized for study stratification (Model A), covariates that were different between groups defined by P<0.10 (Model B), and statistically significant covariates from Models A and B were included in a multivariate logistic regression (Model C). The dichotomized baseline covariates that were utilized for study stratification were MAP <65 mm Hg and APACHE II score >30.” left out

[4] = test system: patients with catecholamine-resistant vasodilatory shock; experiment: Change in CV and total SOFA score from baseline to hour 48, ATHOS-3
Experimental: as §1, §2, §4

[5] = test system: patients with catecholamine-resistant vasodilatory shock; experiment: Adverse events, ATHOS-3 patients with elevated baseline renin; conditions: patients with elevated renin concentrations at baseline
Experimental: Safety was evaluated by assessment of treatment-emergent adverse events, serious adverse events, and adverse event-related drug discontinuations. Data were analyzed with the use of SAS software, version 9.4 (SAS Institute, Cary, N.C.) and R version 3.5.3. (R Foundation).

[6] = renin above study population median, N = 55
[7] = renin above study population median, N = 55, listed as Angiotensin II
[8] = renin below study population median
[9] = renin below study population median, N = 64

Substance: Asp-Arg-Val-Tyr-Ile-His-Pro-Phe [angiotensin II]
- median reduction in renin concentration (serum renin; 3 hours after initiation of therapy, IQR 37.9%-66.5% reduction, placebo 14.1%): 54.3%
- Renin % Change at Hour 3, Mean (SD) (serum renin; N 102): −45.5 (38.59) ^ %
- Renin % Change at Hour 3, Median (range) (serum renin; N 102): −54.8 (−91.1-161.0) %
- Renin Change at Hour 3, Mean (SD) (serum renin; N 102): −210.3 (307.43) ^
- Renin Change at Hour 3, Median (range) (serum renin; N 102): −99.6 (−1574-496.2)
- Hour 3 Renin, Mean (SD) (serum renin; N 103): 231.8 (416.91) ^
- Hour 3 Renin, Median (range) (serum renin; N 103): 85.0 (4.0-2739.8)
- median reduction in angiotensin I levels (angiotensin I): 40.8%
- HR (95% CI), treatment arm, multivariate ([1]; Table 4A whole cohort, full model): 0.77 (0.54-1.08)
- HR (95% CI), treatment arm, multivariate ([1]; Table 4A whole cohort, step-wise model): 0.77 (0.54-1.08)
- HR (95% CI), treatment arm, multivariate ([1]; Table 4B population below median renin, full model): 1.08 (0.64-1.82)
- HR (95% CI), treatment arm, multivariate ([1]; Table 4B population below median renin, step-wise model): 1.11 (0.66-1.86)
- HR (95% CI), treatment arm, multivariate ([1]; Table 4C population above median renin, full model): 0.62 (0.39-0.98)
- HR (95% CI), treatment arm, multivariate ([1]; Table 4C population above median renin, step-wise model): 0.62 (0.39-0.98)
- HR (95% CI), treatment arm, multivariate ([1]; Table 4D whole cohort with treatment-renin interaction, full model): 1.08 (0.64-1.81)
- HR (95% CI), Treatment * Renin >= Population Median interaction ([1]; Table 4D whole cohort, full model): 0.54 (0.27-1.09)
- HR (95% CI), treatment arm, multivariate ([1]; Table 4D whole cohort, step-wise model): 0.77 (0.54-1.08)
- Day 28 mortality ([1]; baseline renin <Pop Median, N = 73): N = 73, 43.9%
- Day 28 mortality ([1]; baseline renin >=Pop Median, N = 64): N = 64, 50.1%
- HR, mortality sensitivity analysis ([1]; high renin cut-off 2x ULN): 0.69
- HR, mortality sensitivity analysis ([1]; high renin cut-off 3x ULN): 0.57
- HR, mortality sensitivity analysis ([1]; high renin cut-off 4x ULN): 0.63
- HR, mortality sensitivity analysis ([1]; high renin cut-off ULN): 0.76
- HR (95% CI), survival, vs placebo ([1]; high renin, AKI subset, N = 62): 0.51 (0.26-0.99), 0.0411
- HR (95% CI), survival, vs placebo ([1]; high renin, ARDS subset, N = 41): 0.49 (0.21-1.16), 0.0964
- HR (95% CI), survival, vs placebo ([1]; low renin, AKI subset, N = 32): 0.55 (0.19-1.58), 0.2574
- HR (95% CI), survival, vs placebo ([1]; low renin, ARDS subset, N = 34): 1.38 (0.59-3.26), 0.4583
- HR (95% CI), survival, vs placebo ([1]; low renin, all, N = 127): 1.11 (0.66-1.86), 0.7002
- Hazard Ratio (95% CI), mortality, treatment arm ([1]; Model A): 0.58 (0.36-0.93)
- Hazard Ratio (95% CI), mortality, treatment arm ([1]; Model B): 0.62 (0.38-0.99)
- 28-day mortality ([1]; patients with renin above the study population median, N = 55, table gives (95% CI)): 50.9%
- 28-day mortality ([1]; patients with renin above the study population median, N = 55, table gives (95% CI), listed as Angiotensin II): 51% (39%-65%)
- 28-day mortality ([1]; patients with renin below the study population median, N = 64): 45% (34%-58%)
- unstratified hazard ratio, 28-day mortality, vs placebo ([1]; all): 0.56 and 0.556
- unstratified hazard ratio, 28-day mortality, vs placebo ([1]; all, listed as LJPC 501): 0.56 (0.35-0.88), 0.0115
- parameter estimate, treatment, Day 28 survival model ([1]; results available data): −0.298
- difference in 28-day mortality vs placebo ([1]; serum renin below the study population median): no statistically significant difference
- parameter estimate, treatment, Day 28 survival model ([1]; with multiple imputation of missing serum renin): −0.229
- RRT Liberation by Day 7 (alive and RRT free) ([2]; renin above study population median): 43%
- ICU Discharge by Day 28 [2, 6]: 44%
- Ventilator Liberation by Day 7 (alive and vent free) [2, 6]: 28%
- ICU Discharge by Day 28 [2, 7]: 44% (32%-58%)
- Ventilator Liberation by Day 7 (alive and vent free) [2, 7]: 28% (18%-43%)
- RRT Liberation by Day 7 (alive and RRT free) ([2]; renin above study population median, listed as Angiotensin II): 43% (25%-66%)
- RRT Liberation by Day 7 (alive and RRT free) [2, 8]: 28% (13%-54%)
- ventilator and RRT liberation, ICU discharge: difference between treatment groups [2, 8]: no differences
- ICU Discharge by Day 28 [2, 9]: 39% (28%-52%)
- Ventilator Liberation by Day 7 (alive and vent free) [2, 9]: 27% (18%-40%)
- MAP Response at Hour 3 ([3]; baseline renin <Pop Median, 57/73 patients): 57/73 (78.1%)
- MAP Response at Hour 3 ([3]; baseline renin >=Pop Median, 39/64 patients): 39/64 (60.9%)
- RR (95% CI), likelihood of renal recovery vs placebo (patients with severe AKI; all patients with severe AKI, N = 105): 2.902 (1.293-6.515)
- RR (95% CI), likelihood of renal recovery vs placebo (patients with severe AKI; severe AKI, renin above study median, N = 62): 4.112 (1.376-12.29), 0.0061
- RR (95% CI), likelihood of renal recovery vs placebo (patients with severe AKI; severe AKI, renin below study median, N = 32): 2.215 (0.429-11.42), 0.3295
- Hour 48 change from baseline in Total SOFA, Mean (SD) ([4]; elevated renin population, N = 54): 1.35±6.032
- Hour 48 change from baseline in Total SOFA, Mean (SD) ([4]; elevated renin population, N = 54, listed as LJPC-501): N = 54, 1.35 (6.032)
- Hour 48 change from baseline in CV SOFA, Mean (SD) ([4]; elevated renin population, N = 55): −1.56±1.793
- Hour 48 change from baseline in CV SOFA, Mean (SD) ([4]; elevated renin population, N = 55, listed as LJPC-501): N = 55, −1.56 (1.793)
- Hour 48 change from baseline in Total SOFA, Mean (SD) ([4]; low renin population, N = 62): N = 62, 0.85 (5.524)
- Hour 48 change from baseline in CV SOFA, Mean (SD) ([4]; low renin population, N = 64): N = 64, −1.77 (1.716)
- change in CV SOFA score compared to placebo ([4]; total ATHOS-3 population, baseline to hour 48): significantly greater
- adverse events or serious adverse events vs placebo [5]: no significant difference
